Experimental findings from ChEMBL document CHEMBL2407091, “Effect of the orthoquinone moiety in 9,10-phenanthrenequinone on its ability to induce apoptosis in HCT-116 and HL-60 cells” (2013) are described below.

In assay [1] the test system is HL-60. As to the kind of experiment: Induction of apoptosis in human HL60 cells assessed as caspase-3 activation at 10 uM after 4 hrs by FACS flow cytometric analysis. The class given is functional, cell-based. On the technique in general: In flow cytometry, cells or beads pass a laser one at a time.
Assay [2] relates to HL-60. Description: Cytotoxicity against human HL60 cells after 24 hrs by WST-1 assay. The class given is functional. Conditions: HL-60, 24 h, read-out: LC50 (the source's name). (Tetrazolium assays rely on reduction of a dye to a coloured formazan, in cell work by metabolically active cells.)
Assay [3] has as its system HCT-116. Description: Cytotoxicity against human HCT116 cells after 24 hrs by MTT assay. Conditions: HCT-116, 24 h, read-out: LC50 (the source's name). The assay is classed as functional.
The test system of assay [4] is HL-60. As to the kind of experiment: Induction of apoptosis in human HL60 cells assessed as DNA fragmentation at 10 uM after 6 hrs by electrophoretic analysis. The assay is classed as functional, cell-based.
Assay [5] has as its system HCT-116. As to the kind of experiment: Cytotoxicity against human HCT116 cells at >2.5 uM after 24 hrs by MTT assay. The class given is functional, cell-based.
Assay [6] has as its system HL-60. As to the kind of experiment: Cytotoxicity against human HL60 cells at 5 uM after 24 hrs by WST-1 assay. The assay is classed as functional, cell-based.

Active and inactive are the calls of the source. The rule behind the calls is not given here. Some results are limits rather than exact numbers.

Regarding `O=C1C(=O)c2cccnc2-c2ncccc21`, the result with HL-60 [1] and with HL-60 [4] was Active. For the same compound, the CC50 in the assay on HL-60 [2] came out at 1.57 µM; with HCT-116 [3] it was 0.73 µM.

For `Oc1cc2ccccc2c2ccccc12`, the CC50 with HL-60 [2] and in the assay with HCT-116 [3] was more than 10 µM in each case.

For `O=c1c(=O)c2cccc3ccc4cccc1c4c32`, the outcome in the assay with HL-60 [1] and in the assay with HL-60 [4] was Active. For the same compound, the CC50 with HL-60 [2] came out at 3.41 µM; in the assay on HCT-116 [3] it was 0.86 µM.

As for `O=c1[nH]c2ccccc2c2ccccc12`, the CC50 with HL-60 [2] and with HCT-116 [3] was more than 10 µM each time.

Turning to `O=C1C=Cc2ccccc2C1=O` [1,2-NAPHTHOQUINONE], the figures for the CC50 in the assay on HL-60 [2] and in the assay on HCT-116 [3] were 7.14 µM and 9.2 µM, respectively.

For the compound `O=C1C(=O)c2ccccc2-c2ccccc21` [9,10-PHENANTHRENEQUINONE], the outcome in the assay with HL-60 [1], in the assay with HL-60 [4], in the assay on HCT-116 [5] and in the assay on HL-60 [6] was Active. Besides, the CC50 in the assay on HL-60 [2] was 3.38 µM; in the assay on HCT-116 [3] it was 1.43 µM.

Turning to `O=C1C(=O)c2cccc3cccc1c23` [ACENAPHTHOQUINONE], the CC50 in the assay with HL-60 [2] and in the assay on HCT-116 [3] was more than 10 µM in each case.

`O=C(C(=O)c1ccccc1)c1ccccc1` [BENZIL]: the CC50 in the assay with HL-60 [2] and in the assay on HCT-116 [3] was more than 10 µM throughout.

Regarding `c1ccc2c(c1)CCc1ccccc1-2` [DIHYDROPHENANTHRENE], the CC50 in the assay on HL-60 [2] and in the assay with HCT-116 [3] was more than 10 µM in each case.

Regarding `c1ccc2c(c1)ccc1ccccc12` [PHENANTHRENE], the CC50 with HL-60 [2] and with HCT-116 [3] was more than 10 µM in each case.
